The source of these data is patent US20140031227A1, “HERBICIDAL COMPOSITIONS COMPRISING 4-AMINO-3-CHLORO-5-FLUORO-6-(4-CHLORO-2-FLUORO-3-METHOXYPHENYL) PYRIDINE-2-CARBOXYLIC ACID OR A DERIVATIVE THEREOF AND GLYPHOSATE OR GLUFOSINATE” (DOW AGROSCIENCES LLC, priority 2012, published 2014).

Assay type in all cases: in vivo
Assay [1] deals with ECHCO (Echinochloa colona (L.) Link, junglerice). Briefly: Example I postemergence foliar-applied mixtures, direct seeded rice weeds, greenhouse: ECHCO. The protocol:
(§1) Seeds or nutlets of the desired test plant species were planted in a soil matrix prepared by mixing a loam or sandy loam soil (e.g., 28.6 percent silt, 18.8 percent clay, and 52.6 percent sand, with a pH of about 5.8 and an organic matter content of about 1.8 percent) and calcareous grit in an 80 to 20 ratio. The soil matrix was contained in plastic pots with a volume of 1 quart and a surface area of 83.6 square centimeters (cm^2). […] The plants were grown for 8-22 days in a greenhouse with an approximate 14 hr photoperiod which was maintained at about 29° C. during the day and 26° C. during the night. Nutrients (Peters Excel® 15-5-15 5-Ca 2-Mg and iron chelate) were applied in the irrigation solution as needed and water was added on a regular basis. Supplemental lighting was provided with overhead metal halide 1000-Watt lamps as necessary. The plants were employed for testing when they reached the first through fourth true leaf stage.
(§2) Treatments consisted of the acid or esters of 4-amino-3-chloro-5-fluoro-6-(4-chloro-2-fluoro-3-methoxy-phenyl)pyridine-2-carboxylic acid (Compound A), each formulated as an SC (suspension concentrate), and various herbicidal components alone and in combination. Forms of compound A were applied on an acid equivalent basis.
(§3) For treatments comprised of formulated compounds, measured amounts of compounds were placed individually in 25 mL glass vials and diluted in a volume of 1.25% (v/v) Agri-Dex® crop oil concentrated to obtain 12× stock solutions. […] Application solutions were prepared by adding an appropriate amount of each stock solution (e.g., 1 mL) and diluted to the appropriate final concentrations with the addition of 10 mL of an aqueous mixture of 1.25% (v/v) crop oil concentrate so that the final spray solutions contained 1.25+/−0.05% (v/v) crop oil concentrate.
(§4) All stock solutions and applications solutions were visually inspected for compound compatibility prior to application. Spray solutions were applied to the plant material with an overhead Mandel track sprayer equipped with a 8002E nozzles calibrated to deliver 187 L/ha over an application area of 0.503 m^2 at a spray height of 18 to 20 inches (46 to 50 cm) above average plant canopy height. Control plants were sprayed in the same manner with the solvent blank.
(§5) The treated plants and control plants were placed in a greenhouse as described above and watered by sub-irrigation to prevent wash-off of the test compounds. After approximately 3 weeks, the condition of the test plants as compared with that of the untreated plants was determined visually and scored on a scale of 0 to 100 percent where 0 corresponds to no injury or growth inhibition and 100 corresponds to complete kill.
(§6) Colby's equation was used to determine the herbicidal effects expected from the mixtures (Colby, S. R. 1967. Calculation of the synergistic and antagonistic response of herbicide combinations. Weeds 15:20-22.).

Assay [2] deals with LEFCH (Leptochloa chinensis (L.) Nees, Chinese sprangletop). Briefly: Example I postemergence foliar-applied mixtures, direct seeded rice weeds, greenhouse: LEFCH. The protocol:
as §1, §2, §3, §4, §5, §6

Assay [3] concerns IPOHE (Ipomoea hederacea Jacq., ivyleaf morningglory). Briefly: Example I postemergence foliar-applied mixtures, direct seeded rice weeds, greenhouse: IPOHE. The settings on record: for Visual Weed Control (%) - 21 DAA IPOHE Obs: glyphosate IPA salt (Rodeo) alone. The protocol: as §1, §2, §3, §4, §5, §6
The test system of assay [4] is DIGSA (Digitaria sanguinalis (L.) Scop., large crabgrass). In words: Example I postemergence foliar-applied mixtures, direct seeded rice weeds, greenhouse: DIGSA. The settings on record: glyphosate IPA salt (Durango) alone, 377 gae/ha. The protocol:
as §1, §2, §3, §4, §5, §6

The test system of assay [5] is ECHCG (Echinochloa crusgalli (L.) Beauv., barnyardgrass). In words: Example I postemergence foliar-applied mixtures, direct seeded rice weeds, greenhouse: ECHCG. As to conditions: for Visual Weed Control (%) - 21 DAA ECHCG Obs: glyphosate IPA salt (Glyphomax) alone. The protocol:
as §1, §2, §3, §4, §5, §6

Assay [6] relates to SCPMA (Schoenoplectus maritimus (L.) Lye or Bolboschoenus maritimus (L.) Palla, sea clubrush). Briefly: Example II in-water applied mixtures, transplanted paddy rice weeds, greenhouse: SCPMA. As to conditions: glyphosate IPA salt (Rodeo) alone. The protocol: Weed seeds or nutlets of the desired test plant species were planted in puddled soil (mud) prepared by mixing a shredded, non-sterilized mineral soil (50.5 percent silt, 25.5 percent clay, and 24 percent sand, with a pH of about 7.6 and an organic matter content of about 2.9 percent) and water at a 1:1 volumetric ratio. The prepared mud was dispensed in 365 mL aliquots into 16-ounce (oz.) non-perforated plastic pots with a surface area of 86.59 square centimeters (cm^2) leaving a headspace of 3 centimeters (cm) in each pot. Mud was allowed to dry overnight prior to planting or transplanting. Rice seeds were planted in Sun Gro MetroMix® 306 planting mixture, which typically has a pH of 6.0 to 6.8 and an organic matter content of about 30 percent, in plastic plug trays. Seedlings at the second or third leaf stage of growth were transplanted into 840 mL of mud contained in 32-oz. non-perforated plastic pots with a surface area of 86.59 cm^2 4 days prior to herbicide application. The paddy was created by filling the headspace of the pots with 2.5 to 3 cm of water. […] The plants were grown for 4-22 days in a greenhouse with an approximate 14 hr photoperiod which was maintained at about 29′C during the day and 26° C. during the night. Nutrients were added as Osmocote® (19:6:12, N:P:K+minor nutrients) at 2 g per 16-oz. pot and 4 g per 32-oz. pot. Water was added on a regular basis to maintain the paddy flood, and supplemental lighting was provided with overhead metal halide 1000-Watt lamps as necessary. The plants were employed for testing when they reached the first through fourth true leaf stage.
Treatments consisted of the acid or esters of 4-amino-3-chloro-5-fluoro-6-(4-chloro-2-fluoro-3-methoxy-phenyl)pyridine-2-carboxylic acid (compound A) each formulated as an SC (suspension concentrate) and various herbicidal components alone and in combination. Forms of compound A were applied on an acid equivalent basis.
For formulated compounds, a measured amount was placed in an individual 100 or 200 mL glass vial and was dissolved in a volume of 1.25% (v/v) Agri-Dex® crop oil concentrate to obtain application solutions.
Applications were made by injecting with a pipetter appropriate amounts of the application solutions, individually and sequentially, into the aqueous layer of the paddy. Control plants were treated in the same manner with the solvent blank. Applications were made so that all treated plant material received the same concentrations of acetone and crop oil concentrate.
The treated plants and control plants were placed in a greenhouse as described above and water was added as needed to maintain a paddy flood. After approximately 3 weeks the condition of the test plants as compared with that of the untreated plants was determined visually and scored on a scale of 0 to 100 percent where 0 corresponds to no injury or growth inhibition and 100 corresponds to complete kill.
as §6

Setting [7] is: glyphosate IPA salt (Glyphomax) alone, 124.5 gae/ha.
Setting [8] is: glyphosate IPA salt (Glyphomax) alone, 249 gae/ha.
The mark [9] stands for this setting: glyphosate IPA salt (Rodeo) alone, 105 gae/ha.
Setting [10] is: glyphosate IPA salt (Rodeo) alone, 210 gae/ha.
Setting [11] is: glyphosate IPA salt (Durango) alone, 377 gae/ha.
[12] abbreviates: Compound A n-Butyl Ester alone, 16 gae/ha.

Counter-ions that a name gives are not always drawn.

For `O=C(O)CNCP(=O)(O)O` [Glyphosate isopropylamine salt, N-(phosphonomethyl)glycine, reference compound], the “Visual Weed Control (%) - 21 DAA ECHCO Obs” value in assay [1] (setting [7]) worked out at 10%; in assay [1] (setting [8]), 20%; in assay [1] (setting [9]) it was 0%; in assay [1] (setting [10]), 0%. Besides, the “Visual Weed Control (%) - 20 DAA LEFCH Obs” value in assay [2] (setting [11]) is 88%. For the same compound, the “Visual Weed Control (%) - 21 DAA LEFCH Obs” value in assay [2] (setting [7]) is listed as 0%; in assay [2] (setting [8]), 45%; in assay [2] (setting [9]) it was 25%; in assay [2] (setting [10]), 75%; in assay [2] (glyphosate IPA salt (Rodeo) alone, 420 gae/ha), 90%. For the same compound, the “Visual Weed Control (%) - 21 DAA IPOHE Obs” value in assay [3] (105 gae/ha) was found to be 15%; in assay [3] (210 gae/ha), 25%; in assay [3] (420 gae/ha), 55%. Moreover, the “Visual Weed Control (%) - 20 DAA DIGSA Obs” value in assay [4] amounted to 10%. Besides, the “Visual Weed Control (%) - 20 DAA ECHCG Obs” value in assay [5] (setting [11]) was found to be 38%. In addition, the “Visual Weed Control (%) - 21 DAA ECHCG Obs” value in assay [5] (124.5 gae/ha) and in assay [5] (249 gae/ha) was 0% each time. For the same compound, the “Visual Weed Control (%) - 21 DAA SCPMA Obs” value in assay [6] (210 gae/ha) and in assay [6] (420 gae/ha) was 0% in each case.

On to `CCCCOC(=O)c1nc(-c2ccc(Cl)c(OC)c2F)c(F)c(N)c1Cl` [Compound A n-Butyl Ester], for which the “Visual Weed Control (%) - 20 DAA LEFCH Obs” value in assay [2] (setting [12]) stood at 10%. For the same compound, the “Visual Weed Control (%) - 20 DAA IPOHE Obs” value in assay [3] (setting [12]) was 15%. Further, in assay [5] (setting [12]), the “Visual Weed Control (%) - 20 DAA ECHCG Obs” value was 65%.
